The target of experiment [1] is biotinylated human Gal-3 (hGal-3) (Homo sapiens, UniProt P17931). As to the kind of experiment: Competitive binding assay: biotinylated hGal-3 binding to microplate-adsorbed asialofetuin (ASF), spectrophotometric. In a few lines: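 Competitive binding of biotinylated hGal-3 to plate-adsorbed asialofetuin was measured with serially diluted compounds over 3 h at 4° C. Bound protein was detected with streptavidin-peroxidase and ABTS substrate by absorbance. IC50 values are means of several measurements.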

Another experiment concerns the target human Gal-1 (hGal-1) (Homo sapiens, UniProt P09382). The experiment is described as follows: Competitive binding assay: biotinylated hGal-1 binding to microplate-adsorbed asialofetuin (ASF), spectrophotometric. The conditions noted are these: hGal-1 binding to asialofetuin; Table 15; R and S epimers of selected Examples also listed; read-out: IC50 (Galectin-1 inhibition). The gist of the method: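 Biotinylated hGal-1 (300-1000 ng/mL) incubated with compound on asialofetuin-coated plates 3 hours at 4 °C, washed, then streptavidin-peroxidase (80 ng/mL) 1 hour at 4 °C. ABTS substrate read spectrophotometrically; IC50 reported as mean of several measurements.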

[2] abbreviates: Table 9, hGal-3, read-out: IC50 (Gal-3 inhibition).
The mark [3] stands for this setting: Table 11, hGal-3, read-out: IC50 (Gal-3 inhibition).

From patent publication US12410208B2, “(2-acetamidyl)thio-beta-D-galactopyranoside derivatives” (Idorsia Pharmaceuticals Ltd, priority 2020, dated 2025) come the findings set out here.

SMILES strings stand for the structures. Where two headings read alike, the source gives them in different places.

Chain of human Gal-1 (hGal-1) (P09382 whole entry): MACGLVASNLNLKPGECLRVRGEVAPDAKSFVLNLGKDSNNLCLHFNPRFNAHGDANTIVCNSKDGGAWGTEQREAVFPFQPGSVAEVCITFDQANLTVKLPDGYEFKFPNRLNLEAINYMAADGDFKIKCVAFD
Chain of biotinylated human Gal-3 (hGal-3) (P17931 whole entry): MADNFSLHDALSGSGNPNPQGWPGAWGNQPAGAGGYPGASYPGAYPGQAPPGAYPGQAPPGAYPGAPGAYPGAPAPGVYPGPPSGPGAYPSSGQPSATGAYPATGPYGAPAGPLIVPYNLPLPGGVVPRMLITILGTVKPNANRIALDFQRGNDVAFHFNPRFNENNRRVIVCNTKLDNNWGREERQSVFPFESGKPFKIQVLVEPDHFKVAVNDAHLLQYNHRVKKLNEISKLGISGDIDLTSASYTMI

As for `CN(CCC1CCOCC1)C(=O)[C@@H](S[C@@H]1O[C@H](CO)[C@H](O)[C@H](n2cc(-c3cc(F)c(F)c(F)c3)nn2)[C@H]1O)C1(O)CCOCC1` [Example 2.41.216S., (S)-2-(((2S,3R,4S,5R,6R)-3,5-Dihydroxy-6-(hydroxymethyl)-4-(4-(3,4,5-trifluorophenyl)-1H-1,2,3-triazol-1-yl)tetrahydro-2H-pyran-2-yl)thio)-2-(4-hydroxytetrahydro-2H-pyran-4-yl)-N-methyl-N-(2-(tetrahydro-2H-pyran-4-yl)ethyl)acetamide], the IC50 (commonly the concentration at which inhibition is half-maximal) in experiment [1] (Gal-3 inhibition, Table 4, read-out: IC50) is 0.02 µM; at human Gal-1 (hGal-1) it was 0.11 µM.

As to `CN(C(=O)[C@@H](S[C@@H]1O[C@H](CO)[C@H](O)[C@H](n2cc(-c3cc(F)c(F)c(F)c3)nn2)[C@H]1O)C1(O)CCOCC1)c1cccnc1` [Example 2.41.234S.], the IC50 (in experiment [1] (setting [2]); on human Gal-1 (hGal-1)) was 0.1 µM throughout.

Regarding `CCN(C)C(=O)C(S[C@@H]1O[C@H](CO)[C@H](O)[C@H](n2cc(-c3nc(Br)cs3)nn2)[C@H]1O)C1(O)CCOCC1` (stereo partly drawn) [Example 14.41.203., 2-(((2S,3R,4S,5R,6R)-4-(4-(4-Bromothiazol-2-yl)-1H-1,2,3-triazol-1-yl)-3,5-dihydroxy-6-(hydroxymethyl)tetrahydro-2H-pyran-2-yl)thio)-N-ethyl-2-(4-hydroxytetrahydro-2H-pyran-4-yl)-N-methylacetamide], the figures for the IC50 (in experiment [1] (setting [3]); on human Gal-1 (hGal-1)) were 0.15 µM and 0.03 µM, respectively.

With `CN(C(=O)[C@@H](S[C@@H]1O[C@H](CO)[C@H](O)[C@H](n2cc(-c3cc(F)c(F)c(F)c3)nn2)[C@H]1O)C1(O)CCOCC1)C1COC1` [Example 2.41.235S., (S)-2-(((2S,3R,4S,5R,6R)-3,5-Dihydroxy-6-(hydroxymethyl)-4-(4-(3,4,5-trifluorophenyl)-1H-1,2,3-triazol-1-yl)tetrahydro-2H-pyran-2-yl)thio)-2-(4-hydroxytetrahydro-2H-pyran-4-yl)-N-methyl-N-(oxetan-3-yl)acetamide], the IC50 was determined as 0.04 µM in experiment [1] (Gal-3 inhibition, Table 5, read-out: IC50) and 0.09 µM on human Gal-1 (hGal-1).

With `CN(CCN1CCOCC1)C(=O)C(S[C@@H]1O[C@H](CO)[C@H](O)[C@H](n2cc(-c3cc(F)c(F)c(F)c3)nn2)[C@H]1O)C(C)(C)O` (stereo partly drawn) [Example 2.31.230., 2-(((2S,3R,4S,5R,6R)-3,5-Dihydroxy-6-(hydroxymethyl)-4-(4-(3,4,5-trifluorophenyl)-1H-1,2,3-triazol-1-yl)tetrahydro-2H-pyran-2-yl)thio)-3-hydroxy-N,3-dimethyl-N-(2-morpholinoethyl)butanamide], the IC50 in experiment [1] (Table 6, hGal-3, read-out: IC50 (Gal-3 inhibition)) was 0.11 µM; at human Gal-1 (hGal-1), 1.25 µM.

On to `CN(C(=O)[C@@H](S[C@@H]1O[C@H](CO)[C@H](O)[C@H](n2cc(-c3cc(F)c(F)c(F)c3)nn2)[C@H]1O)C1(O)CCOCC1)c1ccccc1` [Example 2.41.231S.], for which the IC50 in experiment [1] (setting [2]) was determined as 0.07 µM; at human Gal-1 (hGal-1) it was 0.05 µM.

On to `CCN(C)C(=O)C(S[C@@H]1O[C@H](CO)[C@H](O)[C@H](n2cc(-c3cc(F)c(Cl)c(F)c3)nn2)[C@H]1O)C1(O)CCOCC1` (stereo partly drawn) [Example 11.41.203., 2-(((2S,3R,4S,5R,6R)-4-(4-(4-Chloro-3,5-difluorophenyl)-1H-1,2,3-triazol-1-yl)-3,5-dihydroxy-6-(hydroxymethyl)tetrahydro-2H-pyran-2-yl)thio)-N-ethyl-2-(4-hydroxytetrahydro-2H-pyran-4-yl)-N-methylacetamide], for which the IC50 was determined as 0.03 µM in experiment [1] (setting [3]) and 0.32 µM on human Gal-1 (hGal-1).

Take `CO[C@@H]1[C@@H](n2cc(-c3cc(F)c(F)c(F)c3)nn2)[C@@H](O)[C@@H](CO)O[C@H]1SC(C(=O)N(C)CC(C)(C)F)C1(O)CCC(F)(F)CC1` (stereo partly drawn) [Example 2.44.222.1., 2-(4,4-Difluoro-1-hydroxycyclohexyl)-N-(2-fluoro-2-methylpropyl)-2-(((2S,3R,4S,5R,6R)-5-hydroxy-6-(hydroxymethyl)-3-methoxy-4-(4-(3,4,5-trifluorophenyl)-1H-1,2,3-triazol-1-yl)tetrahydro-2H-pyran-2-yl)thio)-N-methylacetamide]: the IC50 is 0.05 µM in experiment [1] (Table 12, hGal-3, read-out: IC50 (Gal-3 inhibition)) and 0.22 µM on human Gal-1 (hGal-1).

Consider `CO[C@@H]1[C@@H](n2cc(-c3cc(F)c(F)c(F)c3)nn2)[C@@H](O)[C@@H](CO)O[C@H]1S[C@H](C(=O)N(C)c1ccccn1)C1(O)CCC(F)(F)CC1` [Example 2.41.233S.I.], for which the figures for the IC50 (in experiment [1] (setting [2]); at human Gal-1 (hGal-1)) were 0.05 µM and 0.03 µM, respectively.
